From publication PMC9194530, “Interaction of Colchicine-Site Ligands With the Blood Cell-Specific Isotype of β-Tubulin—Notable Affinity for Benzimidazoles” (Frontiers in Cell and Developmental Biology, 2022)
Like-named read-outs stand apart in the source and are kept apart here.

How the values were obtained:
[1] = target: T1, BTb, colchicine site (Bos taurus, UniProt Q6B856); assay: Single-point MDL competitive binding inhibition screen, brain tubulin; set-up: species or system bovine or rat; details: for inhibition at 50 µM: read-out: BTb % (inhibition of MDL binding)
T1 construct: from tissue; host or cells: mammalian brain: either rat brain (purified in house) or bovine brain (bought from Cytoskeleton #HTS02-A or Sigma-Aldrich #T4925)

[2] = target: T2, Brain tubulin (BTb), colchicine site (Bos taurus, UniProt Q6B856); assay: Competition titration with MDL (fluorescence), brain tubulin; assay type: binding, bovine or rat
T2 construct: from tissue; host or cells: mammalian brain: either rat brain (purified in house) or bovine brain (bought from Cytoskeleton #HTS02-A or Sigma-Aldrich #T4925)

[3] = target: Erythrocyte tubulin (CeTb), colchicine site (Gallus gallus, UniProt P09207); assay: biochemical; assay type: binding, chicken (Gallus gallus)
[4] = target: CeTb, colchicine site (Gallus gallus, UniProt P09207); assay: Single-point MDL competitive binding inhibition screen, erythrocyte tubulin; set-up: species or system chicken (Gallus gallus); details: for Kd: from single-point data (50 µM drug) fitted with single-site isotherm, Eq. 4, read-out: CeTb Kd(app); for inhibition at 50 µM: read-out: CeTb % (inhibition of MDL binding)
[5] = target: Erythrocyte tubulin (CeTb) (Gallus gallus, UniProt P09207); assay: Inhibition of taxol-induced tubulin polymerization (absorbance at 350 nm), erythrocyte tubulin; assay type: biochemical, chicken (Gallus gallus)
Experimental: (§1) Tubulin was polymerized at a concentration of 2 µM in PM buffer (0.1 M Pipes pH 7, 1 mM MgCl2) + 0.1 mM GTP in a volume of 60 µL. The reaction mixture was transferred to a 10-mm pathlength microcuvette (Hellma United States Inc., Plainview, NY) and placed in the cuvette holder of a SpectraMax M2 Multimode Microplate Reader (Molecular Devices, San Jose, CA) equipped with temperature control set at 37°C for these experiments. Drugs at 20 µM were added directly to the polymerization mixture and incubated for 15 min previous to starting the recordings. Tubulin polymerization kinetics was followed by recording the absorbance at 350 nm. After recording the baseline, tubulin polymerization was induced by the addition of 2 µM paclitaxel (taxol). The final concentration of DMSO in the mixtures was 4%–5% v/v.
(§2) FIGURE 2 Inhibition of tubulin polymerization by colchicine-site drugs. Tubulin from brain (A) or from erythrocytes (B) was incubated at 2 µM in polymerization buffer at 37°C, and the absorbance at 350 nm was registered for 10 min prior to starting the polymerization by the addition of taxol 2 µM (arrow). Drugs were included in polymerization buffer and used at a concentration of 20 µM.

[6] = target: rat brain tubulin; set-up: method as in Cortese et al., 1977; details: tritiated podophyllotoxin, ref Cortese et al., 1977, read-out: Kd podophyllotoxin, literature value; cited from earlier work
[7] = target: T3, Brain tubulin (BTb) (Bos taurus, UniProt Q6B856); assay: Inhibition of taxol-induced tubulin polymerization (absorbance at 350 nm), brain tubulin; assay type: biochemical, bovine or rat; details: tubulin 2 µM, taxol 2 µM, drugs 20 µM; polymerization with taxol alone = 100%
T3 construct: from tissue; host or cells: mammalian brain: either rat brain (purified in house) or bovine brain (bought from Cytoskeleton #HTS02-A or Sigma-Aldrich #T4925)
Experimental: as §1, §2

[8] = target: T4, Bovine brain tubulin (BBTb) (Bos taurus, UniProt Q6B856); assay: MDL fluorescence dilution titration, bovine brain tubulin; assay type: binding; details: 1 µM tubulin, PM buffer, 5% DMSO, 25°C; ± standard error of fit
T4 construct: purchased Cytoskeleton, Inc. or Sigma-Aldrich #HTS02-A or #T4925; host or cells: bovine brain

[9] = target: Chicken brain tubulin (CBTb); assay: MDL fluorescence dilution titration, chicken brain tubulin; assay type: binding; details: 1 µM tubulin, PM buffer, 5% DMSO, 25°C; ± standard error of fit
[10] = target: T5, Rat brain tubulin (RBTb) (Rattus norvegicus, UniProt Q3KRE8); assay: MDL fluorescence dilution titration, rat brain tubulin; assay type: binding; details: 1 µM tubulin, PM buffer, 5% DMSO, 25°C; ± standard error of fit
T5 construct: Rat brain tubulin was purified from microtubule protein previously extracted from frozen rat brains; from tissue; host or cells: frozen rat brains; tubulin purified in house from microtubule protein

[11] = target: Chicken erythrocyte tubulin (CeTb) (Gallus gallus, UniProt P09207); assay: MDL fluorescence dilution titration, chicken erythrocyte tubulin; assay type: binding
[12] = target: T6, bovine brain microtubule protein (tubulin plus microtubule-associated proteins) (Bos taurus, UniProt Q6B856); assay: GTP-induced polymerization of bovine brain microtubule protein (turbidity at 350 nm); assay type: biochemical; details: albendazole 12-60 µM, 15 µM microtubule protein, 1 mM GTP, 37 °C, 2% DMSO
T6 construct: from tissue; host or cells: bovine brain; microtubule protein purified by the method of Williams and Lee, 1982
Experimental: albendazole (ABZ). 15 µM bovine brain microtubule protein (tubulin plus microtubule-associated proteins, purified according to (Williams and Lee, 1982), in PME buffer was incubated with varying concentrations of albendazole for 40 min at room temperature.
The samples were equilibrated to 37 °C in the cell holder of a UV-Vis spectrophotometer (HP8453, Hewlett Packard, Palo Alto, CA). A baseline was recorded before adding GTP to a concentration of 1 mM to induce microtubule assembly. All samples had 2% (v/v) DMSO. The extent of polymerization was determined by the increase of turbidity as measured by the apparent absorbance at 350 nm.

[13] = target: BBTb; set-up: method as in Lin et al., 1989; details: read-out: Kd combretastatin A4, literature value; ref Lin et al., 1989; cited from earlier work
[14] = target: BTb; set-up: method as in Head et al., 1985; details: read-out: Kd nocodazole, published value; ref Head et al., 1985; cited from earlier work
[15] = 50 µM drug, 1 µM tubulin, 5 µM MDL, single point
[16] = competition titration, 1 µM tubulin, 5 µM MDL, calculated with Equation 4, nb = no binding detected
[17] = competition titration, 1 µM tubulin, 5 µM MDL, nb = no binding detected
[18] = competition titration, 1 µM tubulin, 5 µM MDL
[19] = competition titration, 1 µM tubulin, 5 µM MDL, calculated with Equation 4, read-out: Erythrocyte tubulin (CeTb) Kd
[20] = summary of competition titrations with MDL, read-out: Erythrocyte tubulin (CeTb) Kd (Table 4, selected drugs)
[21] = tubulin 2 µM, taxol 2 µM, drugs 20 µM, polymerization with taxol alone = 100%
[22] = from single-point data (50 µM drug) fitted with single-site isotherm, Eq. 4, read-out: BTb Kd(app)

Compound	IC50 [3, 18] [µM]	Kd [3, 19] [µM]	Kd [3, 20] [µM]	CeTb % (inhibition of MDL binding) [4, 15] [%]	Kd [4] [µM]	inhibition at 50 µM [1] [%]	Brain tubulin (BTb) % inhibition at 60 min [7] [%]	inhibition at 50 µM [1, 15] [%]	Kd [1, 22] [µM]	also measured
CCCOc1ccc2nc(NC(=O)OC)[nH]c2c1 [Oxibendazole]	36 ± 5.6	12 ± 1.9	12	56	13	–	–	–	–	BTb % (inhibition of MDL binding) [1, 15]: <1%; BTb % (inhibition of MDL binding) ([1]; 50 µM drug, 1 µM tubulin, 5 µM MDL, single point, listed as oxibendazole): < 10%; Brain tubulin (BTb) Kd [2, 16]: nb; Brain tubulin (BTb) Kd ([2]; competition titration, 1 µM tubulin, 5 µM MDL, calculated with Equation 4, nb = no binding detected, listed as oxibendazole): no detectable binding; Brain tubulin (BTb) IC50 [2, 17]: nb
COc1cc([C@@H]2c3cc4c(cc3[C@H](O)[C@H]3COC(=O)[C@H]23)OCO4)cc(OC)c1OC [Podophyllotoxin]	15 ± 0.53	4.9 ± 0.18	4.9	–	–	90	90	–	–	Kd [1]: 0.73 µM; Erythrocyte tubulin (CeTb) % inhibition at 30 min [5, 21]: 95%; IC50 [2]: 4 ± 1 µM; Kd ([2]; Brain tubulin (BTb) Kd): 0.37 ± 0.035 µM; Kd ([2]; Brain tubulin (BTb) Kd (Table 4, selected drugs)): 0.37 µM; Kd [6]: 0.55 µM; Ratio: Kd of the drug and CeTb divided by the Kd of the drug and BBTb [3]: 13; inhibition at 50 µM [4, 15]: 81%
COc1ccc(OC)c(C(=O)/C(C)=C/c2ccc(N(C)C)cc2)c1 [MDL, (E)-1-(2,5-dimethoxyphenyl)-3-[4-(dimethylamino)phenyl]-2-methylprop-2-en-1-one]	–	–	–	–	–	–	64	–	–	Erythrocyte tubulin (CeTb) % inhibition at 30 min [5, 21]: 38%; Kd [8]: 0.54 ± 0.082 µM; Kd [9]: 0.51 ± 0.079 µM; Kd [10]: 0.45 ± 0.046 µM; Kd ([11]; 1 µM tubulin, PM buffer, 5% DMSO, 25°C, ± standard error of fit, read-out: Kd,MDL, chicken erythrocytes (CeTb)): 2.6 ± 0.24 µM; MDL affinity for CeTb, fold weaker than to brain tubulins ([11]; direct MDL titration): ~5 fold; Ratio: Kd of MDL and CeTb divided by Kd of MDL and BBTb ([11]; direct MDL titration): 5
CCCSc1ccc2nc(NC(=O)OC)[nH]c2c1 [Albendazole]	104 ± 12	35 ± 4	35	35	31	–	–	–	–	BTb % (inhibition of MDL binding) [1]: <1%; Brain tubulin (BTb) Kd [2, 16]: nb; Brain tubulin (BTb) Kd ([2]; competition titration, 1 µM tubulin, 5 µM MDL, calculated with Equation 4, nb = no binding detected, listed as albendazole): no detectable binding; Brain tubulin (BTb) IC50 [2, 17]: nb; inhibition of polymerization of BTb [12]: little or no inhibition; inhibition of polymerization of BTb ([12]; listed as albendazole (ABZ)): not significantly inhibited
COC(=O)Nc1nc2ccc(C(=O)c3ccccc3)cc2[nH]1 [Mebendazole]	6.8 ± 0.73	2.3 ± 0.25	2.6	90	1.8	–	92	82	1	Erythrocyte tubulin (CeTb) % inhibition at 30 min [5, 21]: 25%; Kd ([2]; competition titration, 1 µM tubulin, 5 µM MDL, calculated with Equation 4, nb = no binding detected, read-out: Brain tubulin (BTb) Kd): 1.3 ± 0.23 µM; IC50 ([2]; competition titration, 1 µM tubulin, 5 µM MDL, nb = no binding detected, read-out: Brain tubulin (BTb) IC50): 14 ± 2.5 µM; Ratio: Kd of the drug and CeTb divided by the Kd of the drug and BBTb ([3]; ratio >1 = weaker binding to CeTb): 1.9
COc1ccc(/C=C\c2cc(OC)c(OC)c(OC)c2)cc1O [Combretastatin A4, cis-Combretastatin A4]	–	–	–	–	–	92	–	–	–	Kd [13]: 0.12 µM; CeTb % (inhibition of MDL binding) [4]: 64%
COc1ccc2cc3[n+](cc2c1OC)CCc1cc2c(cc1-3)OCO2 [Berberine]	–	–	–	2	872	–	–	4	111	–
COc1cc2c(c(OC)c1OC)-c1ccc(OC)c(=O)cc1CCC2 [Desacetamidocolchicine (DAAC), Desacetamidocolchicine]	–	–	–	38	28	–	–	–	1.4	BTb % (inhibition of MDL binding) [1, 15]: 76%
CC1CCCCCC(=O)c2c(O)cc(O)cc2CC(=O)O1 (stereo not drawn) [Curvularin]	–	–	–	–	–	–	–	< 1	–	inhibition at 50 µM [4, 15]: < 1%
COc1ccc(NS(=O)(=O)c2c(F)c(F)c(F)c(F)c2F)cc1F [T138067 (Batabulin), Batabulin]	–	–	–	4	–	–	–	36	8	–
COC(=O)Nc1nc2ccccc2[nH]1 [Carbendazim]	37 ± 5.4	13 ± 1.8	–	–	12	–	–	–	–	Brain tubulin (BTb) Kd [2, 16]: nb; Brain tubulin (BTb) Kd ([2]; competition titration, 1 µM tubulin, 5 µM MDL, calculated with Equation 4, nb = no binding detected, listed as carbendazim): no detectable binding; Brain tubulin (BTb) IC50 [2, 17]: nb; inhibition at 50 µM [4]: 58%
CC(C)(C)c1[nH]cnc1/C=c1\[nH]c(=O)/c(=C/c2ccccc2)[nH]c1=O [Plinabulin]	–	–	–	–	–	< 1	–	–	–	inhibition at 50 µM [4, 15]: < 1%
COC(=O)Nc1nc2ccc(C(=O)c3cccs3)cc2[nH]1 [Nocodazole]	–	–	–	–	–	85	55	–	–	Erythrocyte tubulin (CeTb) % inhibition at 30 min [5]: 90%; CeTb % (inhibition of MDL binding) [4]: 96%; Kd [14]: 2.5 µM
